Data published in patent US20250049914A1, “STEROID ACID-PEPTIDE BASED INTRACELLULAR CARGO DELIVERY” (DEFENCE THERAPEUTICS INC., priority 2021, published 2025).
Where no end group is shown, it is not given here.

Experiments:
[1] = test system: BMDCs; experiment: Antigen-presentation assay using the B3Z reporter system, BMDCs; type: cell-based, mouse; settings: for antigen cross-presentation of OVA (B3Z response) vs OVA alone / antigen-presentation activity of cholic acid-NLS peptide conjugates (B3Z response): BMDCs; for antigen cross-presentation of OVA (B3Z response) vs OVA alone: OVA mixed with bile acid/peptide/conjugate, molar ratio 4:1; for antigen-presentation activity of cholic acid-NLS peptide conjugates (B3Z response): OVA admixed, best conjugate: antigen ratio
Experimental: Mouse bone marrow derived DCs (BMDCs) were generated by flushing the whole marrow from mouse femurs using RPMI™ 1640 supplemented with 10% fetal bovine serum (FBS), 50 U/mL Penicillin-Streptomycin, 2 mM L-glutamine, 10 mM HEPES, 1% MEM Non-essential Amino Acids, 1 mM Sodium Pyruvate, 0.5 mM beta-mercaptoethanol. Following red blood cell lysis, cells were then cultured in media supplemented with 50 ng/mL murine recombinant GM-CSF. The media was changed on days 2, 4, 6 and 8. On day 9, the media was replaced to include recombinant murine GM-CSF and LPS from Escherichia coli 0111 (1 ng/mL) to stimulate DC maturation. Mature DCs were assessed by flow cytometry for their surface expression of CD3, CD19, NK1.1, CD11c, CD80, CD86, and I-A^b.
(§1) Various bile acid-NLS conjugates were screened using the B3Z reporter system. The B3Z cell line is a T-cell hybridoma specific for the H2-K^b-[…] complex. Once activated via its TCR, the LacZ reporter gene (under the NFAT promoter control) is expressed. Briefly, 1.5×10^5 BMDCs or 2.5×10^5 MSCs were co-cultured with 5×10^4 B3Z cells treated with the mixing conditions of ovalbumin (OVA) and bile acid-NLS conjugates for overnight at 37° C. with 5% CO2. The following day, all cells were washed twice with PBS (pH 7.4), and the cell pellets were lysed by adding 100 μL of a lysis buffer containing 0.15 mM chlorophenol red-beta-D-galactopyranoside (CPRG) substrate (Calbiochem, La Jolla, CA), 0.125% NP40 (EMD Sciences, La Jolla, CA), 9 mM MgCl2 (Aldrich, USA) and 100 mM 2-mercaptoethanol in PBS. After a 5- or 24-h incubation at 37° C., absorbance was taken at 570 nm with 636 nm as the reference wavelength. For these experiments, OVA was re-suspended in PBS (pH 7.3) at 5-10 mg/mL. The different bile acid-NLS conjugates were re-suspended in H2O at 10 mg/mL. Bile acid-NLS conjugate: antigen mixtures were prepared at different molar ratios according to Table 1.
Variants of CA-SV40NLS were synthesized in order to explore structure-activity relationships relating to the antigen cross-presentation enhancing activity observed for this conjugate, and therefore a measure of antigen/cargo delivery. More particularly, conjugates having different bile acids conjugated to the SV40NLS peptide (SEQ ID NO: 1) were synthesized and their effect on antigen presentation was evaluated by using the B3Z reporter system with the OVA antigen as described in Example 1. […] In FIG. 11, no increase in antigen cross-presentation in BMDCs over the antigen alone (“OVA”) was observed when OVA was mixed with either unconjugated cholic acid (“CA”) or SV40NLS peptide (“SV40NLS”), although lower sensitivity of the B3Z reporter system as compared to the OT-I CD8 T cell-based assay may have been a factor.
(§2) Further variants of CA-SV40NLS were synthesized in which the SV40NLS peptide was replaced with peptides comprising other NLS's (Table 5) and the antigen presentation activities of the CA-NLS peptide conjugates were evaluated using the B3Z reporter system as described in Example 1. The following conjugate: antigen molar ratios were tested for each conjugate: 2:1, 4:1, 8:1, 12:1 and 22:1. The results in FIGS. 12-15 compare the antigen presentation activities of different conjugates at the conjugate: antigen ratio that yielded the highest B3Z response (OD570) for that conjugate.

[2] = test system: cross-presenting mesenchymal stromal cell line (cpMSC); experiment: Antigen-presentation assay using the B3Z reporter system, cross-presenting MSC line; type: cell-based; settings: cpMSCs, OVA admixed, vs OVA alone or OVA mixed with CA-SV40NLS
Experimental: as §1, §2

[3] = test system: WT MSCs; experiment: Antigen cross-presentation assay on wild-type MSCs with B3Z cells; type: cell-based, mouse; settings: WT MSCs treated with CA-hnRNPA1 and OVA
Experimental: In order to generate Bone marrow (BM)-derived mouse MSCs, the femurs of 6-8-week-old female Balb/c or C57BL/6 mice were isolated and flushed with Alpha Modification of Eagle's Medium (AMEM) supplemented with 10% FBS and 50 U/mL Penicillin-Streptomycin in a 10 cm cell culture dish, then incubated at 37° C. Two days later, non-adherent cells were removed and the media replaced every 3 to 4 days until plastic-adherent cells reached 80% confluency. The generated cells were detached using 0.05% trypsin and expanded until a uniform MSC population was obtained. The generated MSCs were validated for their innate phenotype by flow-cytometry for the expression of CD44, CD45, CD73, and CD90. The cells were frozen in liquid nitrogen until use.
To assess cross-presentation assay, 25×10^3 cells MSCs were seeded per well in 24-well plate then pulsed with steroid acid peptide-conjugated for 6 h admixed with OVA. At the end of the pulsing period, the cells were washed to remove excess antigen then 5×10^4 B3Z cells. The cells were incubated for 17-19 hours prior to their lysis and incubation for another 4-6 hours at 37° C. with a CPRG solution. The optical density signal was detected at wavelength 570 using a SynergyH1™ microplate reader (Biotek, Winooski, VT, United States).
To determine whether a similar effect occurs in wild type (WT) (i.e., non-engineered) MSCs, BM-derived MSCs (Example 1) were used instead in the same cross presentation assay with B3Z responder cells.

[4] = test system: cpMSCs; experiment: OVA-AF647 internalization in cpMSCs, flow cytometry; type: cell-based; settings: various molar ratios
Experimental: For this experiment, a cross-presenting mesenchymal stromal cell line (cpMSC) was used as the antigen presenting cells, which were pulsed with the OVA cargo labelled with Alexa Fluor 647 (i.e., OVA^647)^TM. OVA^647 fluorescence was measured by flow cytometry. Different ratios of CA (NLS1 RPS17 [FIG. 16A]; NLS3 RPS17 [FIG. 16B]; and PQBP-1 [FIG. 16C] to antigen (CA: OVA=22:1, 12:1, 8:1, 4:1, and 2:1) were tested (hnRNPA1 M9 NLS at 2:1).
(§3) To further dissect the effect of bile acid peptide conjugates on antigen presentation, antigen internalization and processing were evaluated. cpMSCs were pulsed with OVA-labelled with AF647 in the presence of various molar ratios of different bile acid peptide conjugates, NLS1-RPS17 [FIG. 16A]; NLS3 RPS17 [FIG. 16B]; PQBP-1 [FIG. 16C]; and hnRNPA1 M9 NLS [FIG. 6]) and fluorescence was assessed by flow cytometry. […] OVA processing was assessed by pulsing cpMSCs with DQ™-Ovalbumin (OVA-DQ) in the presence of the same bile acid peptide conjugates as in FIGS. 6 and 16.

[5] = test system: cpMSCs; experiment: OVA-DQ processing in cpMSCs, flow cytometry; type: cell-based; settings: various molar ratios
Experimental: For this experiment, a cross-presenting mesenchymal stromal cell line (cpMSC) was used as the antigen presenting cells, which were pulsed with DQ™ Ovalbumin (i.e., OVADQ). OVADQ fluorescence was measured by flow cytometry. Different ratios of CA (NLS1 RSP17 [FIG. 17A]; NLS3 RPS17 [FIG. 17B]; and PQBP-1 [FIG. 17C] to antigen (CA: OVA=22:1, 12:1, 8:1, 4:1, and 2:1) were tested (hnRNPA1 M9 NLS at 2:1).
as §3

Question: What does the source list for C[C@H](CCC(=O)NCC(=O)O)[C@H]1CC[C@H]2[C@@H]3[C@@H](O)C[C@@H]4C[C@H](O)CC[C@]4(C)[C@H]3CC[C@]12C [GUDCA, glycoursodeoxycholic acid, reference compound]?
Answer: immunogen enhancer activity across GUDCA: OVA molar ratios ([1]; 2:1, 4:1, 8:1, 12:1 and 22:1): observed at all GUDCA: OVA molar ratios tested; increase in B3Z response (OD570) over OVA alone ([1]; OVA mixed with unconjugated GUDCA, 22:1, data not shown): ≤ 30%

Question: With “SV40NLS: unconjugated NLS peptide CGYGPKKKRKVGG (SEQ ID NO: 1) (not fully specified) [reference compound]” as the molecule, how does the “antigen cross-presentation of OVA (B3Z response) vs OVA alone” value (“antigen cross-presentation … vs OVA alone” below) [1] read?
Answer: Its value is “no increase”.

Question: With “UDCA: ursodeoxycholic acid conjugated to the SV40NLS peptide (SEQ ID NO: 1) (CGYGPKKKRKVGG; not fully specified (N-terminus); also: ursodeoxycholic acid conjugate, site not given here)” as the molecule, how does the “antigen cross-presentation … vs OVA alone” value [1] read?
Answer: Its value is “comparable or higher”.

Question: Which “antigen-presentation activity of cholic acid-NLS peptide conjugates (B3Z response)” value (“antigen-presentation activity” below) [1] does the source give for “NLS2-RG Domain RPS17: cholic acid conjugated to NLS2-RG Domain RPS17 peptide (SEQ ID NO: 8) (CNKRVCEEIAIIPSKKLRNKGSGRIQRGPVRGIS; cysteine pairing not given here; also: cholic acid conjugate, site not given here)” here?
Answer: The value was “high antigen presentation activity”.

Question: For “cMyc NLS: cholic acid conjugated to cMyc NLS peptide CGYGPAAKRVKLDGG (SEQ ID NO: 12) (not fully specified (N-terminus); also: cholic acid conjugate, site not given here)”, which “antigen-presentation activity” value [1] is on record?
Answer: The value was “high antigen presentation activity”.

Question: For “GWG-SV40NLS: cholic acid conjugated to peptide CGWWGYGPKKKRKVGGWWG (SEQ ID NO: 3) (not fully specified (N-terminus); also: cholic acid conjugate, site not given here)”, which “antigen-presentation activity” value [1] is on record?
Answer: The value was “higher antigen-presentation activity than SV40NLS”.

Question: And the “antigen-presentation activity” value [2]?
Answer: Its value is “strikingly high antigen-presentation activity”.

Question: With CC(=O)N[C@@H](CS)C(=O)O [N-acetylcysteine] as the molecule, how does the “effect of inhibitor on the antigen cross-presentation capacity of CA-hnRNPA1” value (shortened to “effect of inhibitor”) [3] read?
Answer: The value was “neutralization”.

Question: C[C@H](CCC(=O)O)[C@H]1CC[C@H]2[C@@H]3[C@H](O)C[C@@H]4C[C@H](O)CC[C@]4(C)[C@H]3C[C@H](O)[C@]12C [CA, cholic acid, reference compound] was tested. Which “antigen cross-presentation … vs OVA alone” value [1] did it give?
Answer: Its value is “no increase”.

Question: CC1(C)CC(NC(=O)C[P+](c2ccccc2)(c2ccccc2)c2ccccc2)CC(C)(C)N1[O] [MitoTempo™] was tested. Which “effect of inhibitor” value [3] did it give?
Answer: Its value is “did not neutralize”.

Question: c1ccc2c(c1)[I+]c1ccccc1-2 [DPI, diphenyleneiodonium chloride] was tested. Which “effect of inhibitor” value [3] did it give?
Answer: The value was “neutralization”.

Question: CC(=O)c1ccc2c(c1)Nc1ccccc1S2 [ML171] was tested. Which “effect of inhibitor” value [3] did it give?
Answer: The value was “neutralization”.

Question: Which results are given for “PQBP-1 NLS: cholic acid conjugated to PQBP-1 NLS peptide CADREEGKERRHHRREELAPY (SEQ ID NO: 7) (not fully specified (N-terminus); also: cholic acid conjugate, site not given here)”?
Answer: antigen-presentation activity of cholic acid-NLS peptide conjugates (B3Z response) [1]: strikingly high antigen-presentation activity; antigen-presentation activity of cholic acid-NLS peptide conjugates (B3Z response) [2]: strikingly high antigen-presentation activity; OVA internalization (OVA-AF647 fluorescence) [4]: enhance OVA internalization; OVA processing (OVA-DQ fluorescence) [5]: enhance OVA processing

Question: How did the “antigen-presentation activity” value [1] turn out when “NLS3-RPS17: cholic acid conjugated to NLS3 RPS17 peptide SKKLRNKIAGYVTHLMKRI (SEQ ID NO: 11)” was run?
Answer: Its value is “high antigen presentation activity”.

Question: What about the “OVA internalization (OVA-AF647 fluorescence)” value [4] of the same molecule?
Answer: The value was “enhance OVA internalization”.

Question: And the “OVA processing (OVA-DQ fluorescence)” value [5]?
Answer: Its value is “enhance OVA processing”.

Question: Which “effect of inhibitor” value [3] does the source give for Cc1c(C)c2c(c(C)c1O)CC[C@@](C)(CCC[C@H](C)CCC[C@H](C)CCCC(C)C)O2 [α-tocopherol] here?
Answer: Its value is “neutralization”.

Question: With “GCDCA: glycochenodeoxycholic acid conjugated to the SV40NLS peptide (SEQ ID NO: 1) ({Glycochenodeoxycholic acid}-CGYGPKKKRKVGG; also: glycochenodeoxycholic acid conjugate, MOD_RES 1 Cholic Acid (ChAc))” as the molecule, how does the “antigen cross-presentation … vs OVA alone” value [1] read?
Answer: Its value is “comparable or higher”.
